According to US20120208776A1 (priority 2002, published 2012):
Read-outs that look alike come from different tables or passages of the source.

What was measured:
[1] = Solubility (observation)
[2] = system: MDA-MB-453 cells; assay: Cell proliferation, cell count (Coulter Counter); conditions: MDA-MB-453 (FIG. 10)
Description: For the cell count assay, breast cancer cells were seeded, in triplicate, at 2×10^4 cells per well, in 24- or 96-well plates.
(§3) For the Coulter counter assay, cells were seeded at 2×10^4 cells per well in 24 well plates (0.875 cm diameter) as described previously. […] Control and treated cells were compared using the student's t-test (p<0.05). For cell cycle analysis the cells were plated (3×10^5) onto 6 cm dishes and allowed to attach for 24 hours. […] After 24 hours the cells were analyzed by DNA flow cytometry, as described previously.

[3] = system: MCF7 cells; assay: Cell proliferation, cell count (Coulter Counter); format: cell-based, human; conditions: for IC50: MCF7 cells, 96 h
[4] = system: MCF7 cells; assay: Cell-cycle analysis by DNA flow cytometry; format: cell-based, human; conditions: about 40 μg/ml
Description: (§1) Synchrony: To synchronize the cells, 3×10^5 cells were plated onto 10 cm dishes and grown for 2 days in DMEM supplemented with 10% fetal bovine serum.
(§2) After incubation for 1-3 days, the supernatant was collected, and the cells were trypsinized, collected, and washed with phosphate buffered saline (PBS) containing 5% FBS. Cell pellets were re-suspended in 1 ml of PBS plus 5% FBS. Thereafter, 5 ml of 70% ethanol were added drop-wise, while vortexing the tube, and the mixture was stored at 4° C. Cells were centrifuged, washed with PBS plus 5% FBS, and re-suspended in 400 μl of propidium iodide (0.1 mg/ml) (Sigma Chemical Co.). 400 μl (2 mg/ml) of RNase (Sigma Chemical Co.) were added, and the cells were incubated in the dark at room temperature for 30 min.

[5] = system: MDA-MB-453 cells; assay: Cell-cycle analysis by DNA flow cytometry; format: cell-based, human; conditions: 48 hrs
Description: as §1, §2

[6] = system: MDA-MB-453 cells; assay: Combination with chemotherapy agents, cell count, combination index (CI); format: cell-based, human
[7] = system: Na^+-K^+-ATPase; assay: Enzymatic assay of adenosine 5′-triphosphatase; format: biochemical; conditions: 20 μM
Description: Enzymatic assay of adenosine 5′-triphosphatase. The enzymatic assay of ATPase (adenosine 5′-triphosphatase, EC 3.6.1.3) followed the Sigma Prod. […] [P] was determined by the Taussky-Shorr method.

[8] = system: MDA-MB-453 cells; assay: Combination of agents, MTT assay, combination index
Description: Calculating the Combination Index. To determine the Combination Index (CI), 1) the Na^+-K^+-ATPase enzyme or 2) MDA-MB-453 cells were exposed to all combinations of 3, 4 or 5 concentrations of each of the agents tested and a solvent control. […] The results of the enzymatic assay of ATPase or MTT assay were analyzed for possible synergistic effects using the median effect principle. Variable ratios of drugs were employed and mutually exclusive equations were assumed.
Calculating the Combination Index.
The simvastatin was obtained from Sigma of St. Louis, Mo. The concentrations tested in the present example were 0, 0.2, 2, 5, and 20 μg/ml actein and 0, 0.8, 4, 20 and 40 μg/ml simvastatin.

[9] = biological target: NTPase/helicase of hepatitis C virus (Hepatitis C virus genotype 1a, UniProt P27958); conditions: competitive inhibition of ATP binding; cited from earlier work
[10] = system: MDA-MB-453 cells; assay: MTT assay, 96 hours; format: cell-based, human; conditions: Homo sapiens, MTT, 96 h, read-out: IC50
Description: as §3

[11] = value in parentheses, read-out: IC50

Chain of NTPase/helicase of hepatitis C virus (P27958 1203-1364): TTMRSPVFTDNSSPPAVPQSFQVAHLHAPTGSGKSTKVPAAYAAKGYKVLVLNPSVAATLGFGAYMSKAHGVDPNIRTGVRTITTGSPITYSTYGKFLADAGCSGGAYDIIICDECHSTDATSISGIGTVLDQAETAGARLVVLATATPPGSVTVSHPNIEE

Compound: 25-acetyl-7,8-didehydrocimigenol 3-O-β-D-xylopyranoside
- solubility [1]: sufficiently soluble

Compound: C[C@@H]1C[C@@H]2O[C@@]3(O[C@@H]2C(C)(C)O)[C@H](O)[C@@]2(C)[C@@H]4CC[C@H]5C(C)(C)[C@@H](O)CC[C@@]56C[C@@]46CC[C@]2(C)[C@@H]13 [Cimigenol, cimigenol]
- effect on the growth of human breast cancer cells [2]: less active than cimigenol glycoside

Compound: COc1ccc(/C=C/C(=O)O)cc1O [isoferulic, isoferulic acid]
- effect on the growth of MCF7 cells [3]: active in suppressing the growth

Compound: CC(=O)O[C@@H]1C[C@@]23C[C@@]24CC[C@H](O[C@@H]2OC[C@@H](O)[C@H](O)[C@H]2O)C(C)(C)[C@@H]4CC=C3[C@]2(C)C[C@@H]3O[C@@]4(O)[C@H](OC(C)(C)[C@H]4O)[C@@H](C)[C@@H]3[C@@]12C [cimiracemoside A]
- IC50 [3]: 41 µg/mL
- IC50 [3, 11]: 61 µM
- cell-cycle arrest [4]: induced cell-cycle arrest at G1

Compound: O=c1[nH]cc(F)c(=O)[nH]1 [5-FU, 5-fluorouracil, reference compound]
- G1 (%) ([5]; (c) 5-FU 0.02 μg/mL): 28.9%
- G2/M (%) ([5]; (c) 5-FU 0.02 μg/mL): 20.3%
- S (%) ([5]; (c) 5-FU 0.02 μg/mL): 47.6%
- Sub G1 (%) ([5]; (c) 5-FU 0.02 μg/mL): 3. %

Compound: cimifugoside
- IC50 [3]: 22 µg/mL
- IC50 [3, 11]: 36 µM

Compound: COc1cccc2c1C(=O)c1c(O)c3c(c(O)c1C2=O)C[C@@](O)(C(=O)CO)C[C@@H]3O[C@H]1C[C@H](N)[C@H](O)[C@H](C)O1 [Doxorubicin, doxorubicin, reference compound]
- G1 (%) ([5]; (c) Doxorubicin 0.1 μg/mL): 30.1%
- G2/M (%) ([5]; (c) Doxorubicin 0.1 μg/mL): 61.7%
- S (%) ([5]; (c) Doxorubicin 0.1 μg/mL): 5.6%
- Sub G1 (%) ([5]; (c) Doxorubicin 0.1 μg/mL): 2.5%

Compound: CC(=O)O[C@H]1C(=O)[C@@]2(C)[C@H]([C@H](OC(=O)c3ccccc3)[C@]3(O)C[C@H](OC(=O)[C@H](O)[C@@H](NC(=O)c4ccccc4)c4ccccc4)C(C)=C1C3(C)C)[C@]1(OC(C)=O)CO[C@@H]1C[C@@H]2O [paclitaxel, reference compound]
- number of viable cells, average ([6]; tax 1): 118624
- number of viable cells, average ([6]; tax 4): 37060.67
- number of viable cells, average ([6]; tax .25 (nM)): 198416.3
- G1 (%) ([5]; (b) Taxol 1 nM): 71.0%
- G2/M (%) ([5]; (b) Taxol 1 nM): 17.0%
- S (%) ([5]; (b) Taxol 1 nM): 10.8%
- Sub G1 (%) ([5]; (b) Taxol 1 nM): 1.0%
- percent inhibition of in vitro Na^+-K^+-ATPase activity [7]: 21.7%
- cell survival ([8]; paclitaxel 1 nM alone): 63.2%
- IC50 [9]: ~16 µM

Compound: COc1cc(/C=C/C(=O)O)ccc1O [ferulic, ferulic acid]
- effect on the growth of MCF7 cells [3]: active in suppressing the growth

Compound: CCC(C)(C)C(=O)O[C@H]1C[C@@H](C)C=C2C=C[C@H](C)[C@H](CC[C@@H]3C[C@@H](O)CC(=O)O3)[C@H]21 [simvastatin]
- IC50 [10]: 21.5 µM
- viability at 20 µg/mL ([8]; Homo sapiens, MDA-MB-453, read-out: percent viable cells): 83.1%
- cell survival ([8]; simvastatin 40 ug/ml alone): 58.2%

Compound: CC(=O)O[C@@H]1C[C@@]23C[C@@]24CC[C@H](O[C@@H]2OC[C@@H](O)[C@H](O)[C@H]2O)C(C)(C)[C@@H]4CC[C@H]3[C@]2(C)C[C@@H]3O[C@@]4(C[C@@H](C)[C@@H]3[C@@]12C)OC[C@@]1(C)O[C@@H]41 [23-epi-26-deoxyactein]
- IC50 [3]: 21 µg/mL
- IC50 [3, 11]: 32 µM
- cell-cycle arrest [4]: induced cell-cycle arrest at G1
